Measured values from patent US20260364089A1, “PYRIDOPYRIMIDINE KRAS INHIBITORS” (Treeline Biosciences, Inc., priority 2022, published 2026).

Target: T1, KRas G12V (Homo sapiens, UniProt P01116, G12V)
T1 construct: Biotinylated KRas G12V (aa 1-169) loaded with GDP nucleotide; biotin (biotinylated)
Test: SOS1-Catalyzed Nucleotide Exchange Assay, KRas G12V (Method 2)
Type: biochemical
Conditions: Method 2, A; 5 nM KRas G12V (aa 1-169, GDP-loaded), 50 nM SOS1; read-out: KRas G12V IC50 (nM) (Method 2, A)
Procedure: KRas G12V [Method 2]: Compounds were pre-dispensed via Echo liquid handling (acoustic, touch-free) to generate assay ready plates (ARP). More precisely, a 10-point concentration response curve for each compound was prepared with appropriate top concentration (1 μM, 10 μM, 100 μM). Biotinylated KRas G12V (aa 1-169) loaded with GDP nucleotide and Streptavidin-Europium (SA-EU, Columbia Biosciences) were preincubated in assay buffer (20 mM HEPES pH 7.4, 150 mM NaCl, 5 mM MgCl2, 1 mM DTT, 0.01% Brij-35, 0.3 mg/mL BSA) on ice for 30 min. Separately SOS1 (aa 546-1049) and EDA-GTP-DY647P1 (Jena Bioscience) were preincubated in assay buffer on ice for 30 min. After 30 minutes of incubation for the assay components, 5 μL buffer and 5 μL of KRas G12V-SA-Eu were added to each well of the ARP. After a further 30 min, 5 μL of SOS1-EDA-GTP-D467P1 was added to start the nucleotide exchange reaction. Final concentration in the assay were 5 nM KRas G12V, 50 nM SOS1 (aa 564-1049). The reaction was allowed to proceed for 60-90 minutes after which the plate was read on a plate reader. After normalization of the raw data, the data was fit to a four-parameter logistic curve.

T1 sequence (P01116 1-169 G12V): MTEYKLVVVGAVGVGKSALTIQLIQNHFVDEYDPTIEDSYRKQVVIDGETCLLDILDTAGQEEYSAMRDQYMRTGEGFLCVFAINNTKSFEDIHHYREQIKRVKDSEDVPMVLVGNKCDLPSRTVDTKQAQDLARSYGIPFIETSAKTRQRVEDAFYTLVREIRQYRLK

| SMILES | IC50 [nM] |
| --- | --- |
| Nc1cc(Cl)c2c(c1)-c1c(Cl)cc3c(nc(OC[C@@]45CCCN4C[C@H](F)C5)nc3c1F)N1CCCC(CCNC(=O)CCCC2)C1 (stereo partly drawn) [Compound 155a, 3^5-amino-2^6,3^3-dichloro-2^8-fluoro-2^2-(((2R,7aS)-2-fluorotetrahydro-1H-pyrrolizin-7a(5H)-yl)methoxy)-9-aza-2(4,7)-quinazolina-1(1,3)-piperidina-3(1,2)-benzenacycloundecaphan-8-one] | 1000 to 10000 |
| Nc1cc2c(cc1F)CCCCC(=O)NCCC1CCCN(C1)c1nc(OC[C@@]34CCCN3C[C@H](F)C4)nc3c(F)c-2ncc13 (stereo partly drawn) [Compound 159a, 3^5-amino-2^8,3^4-difluoro-2^2-(((2R,7aS)-2-fluorotetrahydro-1H-pyrrolizin-7a(5H)-yl)methoxy)-9-aza-2(4,7)-pyrido[4,3-d]pyrimidina-1(1,3)-piperidina-3(1,2)-benzenacycloundecaphan-8-one] | 1000 to 10000 |
| Nc1cc(Cl)c2c(c1)-c1ncc3c(nc(OC[C@@]45CCCN4C[C@H](F)C5)nc3c1F)N1CCCC(CCNC(=O)CCCC2)C1 (stereo partly drawn) [Compound 154a, 3^5-amino-3^3-chloro-2^8-fluoro-2^2-(((2R,7aS)-2-fluorotetrahydro-1H-pyrrolizin-7a(5H)-yl)methoxy)-9-aza-2(4,7)-pyrido[4,3-d]pyrimidina-1(1,3)-piperidina-3(1,2)-benzenacycloundecaphan-8-one] | ≤ 100 |
| Nc1ccc2c(c1F)-c1ncc3c(nc(OC[C@@]45CCCN4C[C@H](F)C5)nc3c1F)N1CCCC(CCNC(=O)CCCC2)C1 (stereo partly drawn) [Compound 160a, 3^5-amino-2^8,3^6-difluoro-2^2-(((2R,7aS)-2-fluorotetrahydro-1H-pyrrolizin-7a(5H)-yl)methoxy)-9-aza-2(4,7)-pyrido[4,3-d]pyrimidina-1(1,3)-piperidina-3(1,2)-benzenacycloundecaphan-8-one] | 10000 to 30000 |

Same assay, conditions: Method 2, B; 5 nM KRas G12V (aa 1-169, GDP-loaded), 50 nM SOS1; read-out: KRas G12V IC50 (nM) (Method 2, B)

| SMILES | IC50 [nM] |
| --- | --- |
| CN(C)CC1(COc2nc3c4ccc(c(F)c4n2)-c2c(c(Cl)cc4[nH]ncc24)CCCCC(=O)NCCC2CCCN3C2)CC1 (single isomer, unassigned) [Compound 197a, 1^6-chloro-2^2-((1-((dimethylamino)methyl)cyclopropyl)methoxy)-2^8-fluoro-1^1H-6-aza-2(7,4)-quinazolina-1(4,5)-indazola-3(1,3)-piperidinacycloundecaphan-7-one] | ≤ 100 |
| Nc1cc2c(c(Cl)c1F)CCCCC(=O)NCC1COCCN(C1)c1nc(OC[C@@]34CCCN3C[C@H](F)C4)nc3c(F)c-2c(F)cc13 (stereo partly drawn) [Compound 184a, 3^5-amino-3^3-chloro-2^6,2^8,3^4-trifluoro-2^2-(((2R,7aS)-2-fluorotetrahydro-1H-pyrrolizin-7a(5H)-yl)methoxy)-9-aza-1(4,6)-oxazepana-2(4,7)-quinazolina-3(1,2)-benzenacyclodecaphan-8-one] | 100 to 1000 |
| Nc1cc(Cl)c2c(c1)-c1ncc3c(nc(OC[C@@]45CCCN4C[C@H](F)C5)nc3c1F)N1C[C@H](F)C[C@H](C1)NC(=O)CCCC2 [Compound 201a, (1^3R,1^5R)-3^5-amino-3^3-chloro-1^5,2^8-difluoro-2^2-(((2R,7aS)-2-fluorotetrahydro-1H-pyrrolizin-7a(5H)-yl)methoxy)-9-aza-2(4,7)-pyrido[4,3-d]pyrimidina-1(1,3)-piperidina-3(1,2)-benzenacyclononaphan-8-one] | 100 to 1000 |
| Nc1cc2c(c(Cl)n1)CCCCC(=O)NCCC1(O)CCCN(C1)c1nc(OC[C@@]34CCCN3C[C@H](F)C4)nc3c(F)c-2ccc13 (stereo partly drawn) [Compound 187a, 1^6-amino-1^2-chloro-2^8-fluoro-2^2-(((2R,7aS)-2-fluorotetrahydro-1H-pyrrolizin-7a(5H)-yl)methoxy)-3^3-hydroxy-6-aza-2(7,4)-quinazolina-1(4,3)-pyridina-3(1,3)-piperidinacycloundecaphan-7-one] | 1000 to 10000 |
| O=C1CCCCc2ccc3[nH]ncc3c2-c2ccc3c(nc(OC[C@@]45CCCN4C[C@H](F)C5)nc3c2F)N2CCCC(CCN1)C2 (stereo partly drawn) [Compound 166a, 2^8-fluoro-2^2-(((2R,7aS)-2-fluorotetrahydro-1H-pyrrolizin-7a(5H)-yl)methoxy)-1^1H-6-aza-2(7,4)-quinazolina-1(4,5)-indazola-3(1,3)-piperidinacycloundecaphan-7-one] | ≤ 100 |
| O=C1CCCCc2c(Cl)cc3[nH]ncc3c2-c2ccc3c(nc(OC[C@@]45CCCN4C[C@H](F)C5)nc3c2F)N2CCCC(CCN1)C2 (single isomer, unassigned) [Compound 202a] | ≤ 100 |
| CN(C)CC1(COc2nc3c4ccc(c(F)c4n2)-c2c(c(Cl)cc4[nH]ncc24)CCCCC(=O)NCCC2CCCN3C2)CC1 (single isomer, unassigned) [Compound 197b, 1^6-chloro-2^2-((1-((dimethylamino)methyl)cyclopropyl)methoxy)-2^8-fluoro-1^1H-6-aza-2(7,4)-quinazolina-1(4,5)-indazola-3(1,3)-piperidinacycloundecaphan-7-one] | ≤ 100 |
| Nc1cc2c(c(C(F)(F)F)c1)CCCCC(=O)NCCC1CCCN(C1)c1nc(OC[C@@]34CCCN3C[C@H](F)C4)nc3c(F)c-2ncc13 (stereo partly drawn) [Compound 181a, 3^5-amino-2^8-fluoro-2^2-(((2R,7aS)-2-fluorotetrahydro-1H-pyrrolizin-7a(5H)-yl)methoxy)-3^3-(trifluoromethyl)-9-aza-2(4,7)-pyrido[4,3-d]pyrimidina-1(1,3)-piperidina-3(1,2)-benzenacycloundecaphan-8-one] | 1000 to 10000 |
| O=C1CCCCc2c(Cl)cc3[nH]ncc3c2-c2ncc3c(nc(OC[C@@]45CCCN4C[C@H](F)C5)nc3c2F)N2CCCC(CCN1)C2 (stereo partly drawn) [Compound 196a, 1^6-chloro-2^8-fluoro-2^2-(((2R,7aS)-2-fluorotetrahydro-1H-pyrrolizin-7a(5H)-yl)methoxy)-1^1H-6-aza-2(7,4)-pyrido[4,3-d]pyrimidina-1(4,5)-indazola-3(1,3)-piperidinacycloundecaphan-7-one] | ≤ 100 |
| Nc1cc2c(c(Cl)c1F)CCCCC(=O)NCCC1(O)CCCN(C1)c1nc(OC[C@@]34CCCN3C[C@H](F)C4)nc3c(F)c-2c(F)cc13 (stereo partly drawn) [Compound 183a, 3^5-amino-3^3-chloro-2^6,2^8,3^4-trifluoro-2^2-(((2R,7aS)-2-fluorotetrahydro-1H-pyrrolizin-7a(5H)-yl)methoxy)-1^3-hydroxy-9-aza-2(4,7)-quinazolina-1(1,3)-piperidina-3(1,2)-benzenacycloundecaphan-8-one] | 100 to 1000 |
| O=C1CCCc2c(F)ccc3cc(O)cc(c23)-c2ncc3c(nc(OC[C@@]45CCCN4C[C@H](F)C5)nc3c2F)N2CCCC(O)(CCN1)C2 (stereo partly drawn) [Compound 136a, 2^8,3^7-difluoro-2^2-(((2R,7aS)-2-fluorotetrahydro-1H-pyrrolizin-7a(5H)-yl)methoxy)-1^3,3^3-dihydroxy-8-aza-2(4,7)-pyrido[4,3-d]pyrimidina-1(1,3)-piperidina-3(1,8)-naphthalenacyclodecaphan-7-one] | ≤ 100 |
| O=C1CCCCc2c(Cl)cc3[nH]ncc3c2-c2ccc3c(nc(OC[C@@]45CCCN4C[C@H](F)C5)nc3c2F)N2CCOCC(CN1)C2 (stereo partly drawn) [Compound 198a, 3^6-chloro-2^8-fluoro-2^2-(((2R,7aS)-2-fluorotetrahydro-1H-pyrrolizin-7a(5H)-yl)methoxy)-3^1H-9-aza-1(4,6)-oxazepana-2(4,7)-quinazolina-3(4,5)-indazolacyclodecaphan-8-one] | ≤ 100 |
